According to publication PMC9519446, “Discovery of an Orally Active Benzoxaborole Prodrug Effective in the Treatment of Chagas Disease in Non-human Primates” (Nature microbiology, 2022):

Assays:
[1] = Luminex-based multiplex serological assay (IgG to recombinant T. cruzi proteins); assay type: in vivo, rhesus macaques (Macaca mulatta); details: treated animal T19
Protocol: (§1) Luminex-based multiplex serological assays were performed as previously described, [17]. For a number of smaller proteins, fusions of up to 2 individual genes are employed for some target proteins in order to expand the array of antibodies being detected while controlling costs and complexity of the assay. (TritrypDb.org identifiers: Tc1= fusion of TcBrA4_0116860 and TcYC6_0028190; Tc2= fusion of TcBrA4_0088420 and TcBrA4_0101960; Tc3 = fusion of TcBrA4_0104680 and TcBrA4_0101980; Tc4= fusion of TcBrA4_0028480 and TcBrA4_0088260; Tc5 = fusion of TcYC6_0100010 and TcBrA4_0074300; Tc7 = fusion of TcYC6_0083710 and TcBrA4_0130080; Tc8 = TcYC6_0037170; Tc11 = TcYC6_0124160; Tc17 = fusion of TcBrA4_0028230 and TcBrA4_0029760; Kn107 = TcCLB.508355.250; G10 = TcCLB.504199.20). Macaque antibody binding to individual beads in the Multiplex assays was detected with donkey anti-human IgG (H+L) conjugated to phycoerythrin (Jackson ImmunoResearch) in a 1:200 dilution.

[2] = system: recombinant T. cruzi proteins; experiment: as above; assay type: in vivo, rhesus macaques (Macaca mulatta); details: for IgG response to G10 (36) / IgG response to Kn107 (20) / IgG response to Tc1 (3) / IgG response to Tc2 (6) / IgG response to Tc3 (11) / IgG response to Tc4 (16) / IgG response to Tc5 (22) / IgG response to Tc7 (27) / IgG response to Tc8 (31) / IgG response to Tc11 (35) / IgG response to Tc17 (51) / IgG response to Tc lysate (50): treated animal T19
Protocol: as §1

## Cc1c(C(=O)N[C@H](C(=O)OCC2CCOCC2)C(C)C)ccc2c1B(O)OC2 [AN15368]
[1]; 2017-09-13
  IgG response to GFP (58): 58.5
[1]; 2017-11-17
  IgG response to GFP (58): -25.0
[1]; 2017-12-06
  IgG response to GFP (58): 27.0
[1]; 2017-12-20
  IgG response to GFP (58): -24.3
[1]; 2018-01-09
  IgG response to GFP (58): 103.5
[1]; 2018-01-23
  IgG response to GFP (58): -17.8
[1]; 2018-02-27
  IgG response to GFP (58): -110.5
[1]; 2018-03-28
  IgG response to GFP (58): -15.8
[1]; 2019-02-19
  IgG response to GFP (58): -19.0
[1]; 2020-06-18
  IgG response to GFP (58): -50.3
[1]; 2021-05-20
  IgG response to GFP (58): -25.5
[2]; treated NHP, up to 42 months after end of treatment
  IgG levels to recombinant T. cruzi proteins over time: Declining IgG levels
[2]; 2017-09-13
  IgG response to G10 (36): 45.3
  IgG response to Kn107 (20): 5.3
  IgG response to Tc1 (3): 4561.8
  IgG response to Tc2 (6): 786.0
  IgG response to Tc3 (11): -22.8
  IgG response to Tc4 (16): 35.3
  IgG response to Tc5 (22): -9.5
  IgG response to Tc7 (27): 2389.8
  IgG response to Tc8 (31): 14652.0
  IgG response to Tc11 (35): 292.3
  IgG response to Tc17 (51): 1360.0
  IgG response to Tc lysate (50): 2591.5
[2]; 2017-11-17
  IgG response to G10 (36): 2.8
  IgG response to Kn107 (20): 7.0
  IgG response to Tc1 (3): 2671.5
  IgG response to Tc2 (6): 364.3
  IgG response to Tc3 (11): 25.0
  IgG response to Tc4 (16): 39.3
  IgG response to Tc5 (22): -11.5
  IgG response to Tc7 (27): 1520.3
  IgG response to Tc8 (31): 12143.5
  IgG response to Tc11 (35): 154.0
  IgG response to Tc17 (51): 1317.5
  IgG response to Tc lysate (50): 1854.3
[2]; 2017-12-06
  IgG response to G10 (36): 38.0
  IgG response to Kn107 (20): 21.8
  IgG response to Tc1 (3): 2769.0
  IgG response to Tc2 (6): 433.8
  IgG response to Tc3 (11): -25.8
  IgG response to Tc4 (16): 11.8
  IgG response to Tc5 (22): 33.5
  IgG response to Tc7 (27): 1546.5
  IgG response to Tc8 (31): 12008.3
  IgG response to Tc11 (35): 211.8
  IgG response to Tc17 (51): 1420.3
  IgG response to Tc lysate (50): 1538.8
[2]; 2017-12-20
  IgG response to G10 (36): -55.8
  IgG response to Kn107 (20): 36.8
  IgG response to Tc1 (3): 2355.8
  IgG response to Tc2 (6): 410.8
  IgG response to Tc3 (11): 34.8
  IgG response to Tc4 (16): 99.0
  IgG response to Tc5 (22): 41.0
  IgG response to Tc7 (27): 1365.3
  IgG response to Tc8 (31): 9274.0
  IgG response to Tc11 (35): 116.0
  IgG response to Tc17 (51): 1322.5
  IgG response to Tc lysate (50): 1584.0
[2]; 2018-01-09
  IgG response to G10 (36): 36.5
  IgG response to Kn107 (20): 76.0
  IgG response to Tc1 (3): 3757.5
  IgG response to Tc2 (6): 565.5
  IgG response to Tc3 (11): 64.8
  IgG response to Tc4 (16): 81.0
  IgG response to Tc5 (22): -22.0
  IgG response to Tc7 (27): 1442.3
  IgG response to Tc8 (31): 13021.3
  IgG response to Tc11 (35): 357.0
  IgG response to Tc17 (51): 2026.0
  IgG response to Tc lysate (50): 2194.3
